Key:
Assay in all cases: NCI-60 one-dose assay
Type in all cases: cell-based
NCI-H226 = conditions: Homo sapiens, NCI-H226 (Non-Small Cell Lung Cancer), read-out: Cell Inhibition Percent
Experimental: (§1) The final compounds were submitted to the National Cancer Institute, Bethesda, USA, for screening in vitro for anti-cancer. […] compounds, 4a–j, 5, and 6, were selected according to the Development Therapeutic Program (DTP) protocol. The selected compounds were evaluated for their in vitro cytotoxic activity against a panel of sixty cancer cell lines (NCI-60 cell line panel) derived from six cell lines panel of leukemia, nine cell lines of lung cancer, six cell lines of CNS cancer, seven cell lines of colon cancer, eight cell lines of melanoma, six cell lines of ovarian cancer, eight cell lines of renal cancer, two cell lines of prostate cancer, and eight cell lines of breast cancer, representing the full nine human systems as leukemia, melanoma, and cancers of the lung, colon, brain, breast, ovary, kidney, and prostate.
(§2) The selected compounds 4a–j, 5, and 6 were tested at a single concentration of 10 µM. The screening results for the selected compounds are illustrated in Table 1.
(§3) The NCI anti-cancer screening methodology has been described in detail elsewhere (http://www.dtp.nci.nih.gov, accessed on 20 February 2021). Following the Drug Evaluation Branch protocol, National Cancer Institute, Bethesda, USA, a primary anti-cancer assay was performed on approximately 60 human tumor cell line panels derived from nine neoplastic diseases.

HL-60(TB) = conditions: Homo sapiens, HL-60(TB) (Leukemia), read-out: Cell Inhibition Percent
Experimental: as §1, §2, §3

MDA-MB 231 = conditions: Homo sapiens, MDA-MB 231 (Breast Cancer), read-out: Cell Inhibition Percent
Experimental: as §1, §2, §3

HOP-92 = conditions: Homo sapiens, HOP-92 (Non-Small Cell Lung Cancer), read-out: Cell Inhibition Percent
Experimental: as §1, §2, §3

LOX IMVI = conditions: Homo sapiens, LOX IMVI (Melanoma), read-out: Cell Inhibition Percent
Experimental: as §1, §2, §3

A498 = conditions: Homo sapiens, A498 (Renal Cancer), read-out: Cell Inhibition Percent
Experimental: as §1, §2, §3

UACC-257 = conditions: Homo sapiens, UACC-257 (Melanoma), read-out: Cell Inhibition Percent
Experimental: as §1, §2, §3

UO-31 = conditions: Homo sapiens, UO-31 (Renal Cancer), read-out: Cell Inhibition Percent
Experimental: as §1, §2, §3

KM12 = conditions: Homo sapiens, KM12 (Colon Cancer), read-out: Cell Inhibition Percent
Experimental: as §1, §2, §3

SNB-75 = conditions: Homo sapiens, SNB-75 (CNS cancer), read-out: Cell Inhibition Percent
Experimental: as §1, §2, §3

NCI-H322M = conditions: Homo sapiens, NCI-H322M (Non-Small Cell Lung Cancer), read-out: Cell Inhibition Percent
Experimental: as §1, §2, §3

MOLT-4 = conditions: Homo sapiens, MOLT-4 (Leukemia), read-out: Cell Inhibition Percent
Experimental: as §1, §2, §3

MDA-MB-435 = conditions: Homo sapiens, MDA-MB-435 (Melanoma), read-out: Cell Inhibition Percent
Experimental: as §1, §2, §3

MCF7 = conditions: Homo sapiens, MCF7 (Breast Cancer), read-out: Cell Inhibition Percent
Experimental: as §1, §2, §3

IGROV1 = conditions: Homo sapiens, IGROV-1, IGROV1 (ovarian cancer), read-out: Cell Inhibition Percent
Experimental: as §1, §2, §3

EKVX = conditions: Homo sapiens, EKVX (Non-Small Cell Lung Cancer), read-out: Cell Inhibition Percent
Experimental: as §1, §2, §3

SK-MEL-5 = conditions: Homo sapiens, SK-MEL-5 (Melanoma), read-out: Cell Inhibition Percent
Experimental: as §1, §2, §3

786-0 = conditions: Homo sapiens, 786-0 (Renal Cancer), read-out: Cell Inhibition Percent
Experimental: as §1, §2, §3

NCI-H23 = conditions: Homo sapiens, NCI-H23 (Non-Small Cell Lung Cancer), read-out: Cell Inhibition Percent
Experimental: as §1, §2, §3

ACHN = conditions: Homo sapiens, ACHN (Renal Cancer), read-out: Cell Inhibition Percent
Experimental: as §1, §2, §3

U251 = conditions: Homo sapiens, U-251, U251 (CNS cancer), read-out: Cell Inhibition Percent
Experimental: as §1, §2, §3

HCT-15 = conditions: Homo sapiens, HCT-15 (Colon Cancer), read-out: Cell Inhibition Percent
Experimental: as §1, §2, §3

MDA-MB-468 = conditions: Homo sapiens, MDA-MB-468 (Breast Cancer), read-out: Cell Inhibition Percent
Experimental: as §1, §2, §3

SF-539 = conditions: Homo sapiens, SF-539 (CNS cancer), read-out: Cell Inhibition Percent
Experimental: as §1, §2, §3

UACC-62 = conditions: Homo sapiens, UACC-62 (Melanoma), read-out: Cell Inhibition Percent
Experimental: as §1, §2, §3

SF-268 = conditions: Homo sapiens, SF-268 (CNS cancer), read-out: Cell Inhibition Percent
Experimental: as §1, §2, §3

HCT-116 = conditions: Homo sapiens, HCT-116 (Colon Cancer), read-out: Cell Inhibition Percent
Experimental: as §1, §2, §3

HOP-62 = conditions: Homo sapiens, HOP-62 (Non-Small Cell Lung Cancer), read-out: Cell Inhibition Percent
Experimental: as §1, §2, §3

OVCAR-5 = conditions: Homo sapiens, OVCAR-5 (ovarian cancer), read-out: Cell Inhibition Percent
Experimental: as §1, §2, §3

PC-3 = conditions: Homo sapiens, PC-3 (Prostate Cancer), read-out: Cell Inhibition Percent
Experimental: as §1, §2, §3

OVCAR-8 = conditions: Homo sapiens, OVCAR-8 (ovarian cancer), read-out: Cell Inhibition Percent
Experimental: as §1, §2, §3

SMILES | inhibition at 10 µM (NCI-H226) | inhibition at 10 µM (HL-60(TB)) | inhibition at 10 µM (MDA-MB 231) | inhibition at 10 µM (HOP-92) | inhibition at 10 µM (LOX IMVI) | inhibition at 10 µM (A498) | inhibition at 10 µM (UACC-257) | inhibition at 10 µM (UO-31) | inhibition at 10 µM (KM12) | inhibition at 10 µM (SNB-75) | inhibition at 10 µM (NCI-H322M) | inhibition at 10 µM (MOLT-4) | inhibition at 10 µM (MDA-MB-435) | inhibition at 10 µM (MCF7) | inhibition at 10 µM (IGROV1) | inhibition at 10 µM (EKVX) | inhibition at 10 µM (SK-MEL-5) | inhibition at 10 µM (786-0) | inhibition at 10 µM (NCI-H23) | inhibition at 10 µM (ACHN) | other results
O=C(NN=Cc1ccc(Cl)cc1Cl)c1ccc2[nH]c(-c3ccc(Cl)cc3)nc2c1 [Compound 4f, N′-(2,4-Dichlorobenzylidene)-2-(4-chlorophenyl)-1H-benzimidazole-5-carbohydrazide] | 18.8% | 5.98% | 11.4% | 0% | 18.9% | 36.7% | 6.59% | 27.8% | 1.75% | 12.4% | 0% | 72.6% | 0% | 13.4% | 31% | 13.7% | 2.92% | 0% | 4.26% | 9.01% | inhibition at 10 µM (U251): 41%; inhibition at 10 µM (HCT-15): 0%; inhibition at 10 µM (MDA-MB-468): 0%; inhibition at 10 µM (SF-539): 5.73%; inhibition at 10 µM (UACC-62): 0%; inhibition at 10 µM (SF-268): 3.63%; inhibition at 10 µM (HCT-116): 8.63%; inhibition at 10 µM (HOP-62): 5.89%; inhibition at 10 µM (OVCAR-5): 0%; inhibition at 10 µM (PC-3): 7.03%; inhibition at 10 µM (OVCAR-8): 17.1%
O=C(NN=Cc1ccc([N+](=O)[O-])cc1)c1ccc2[nH]c(-c3ccc(Cl)cc3)nc2c1 [Compound 4c, N′-(4-Nitrobenzylidene)-2-(4-chlorophenyl)-1H-benzimidazole-5-carbohydrazide] | 45.2% | 93.4% | 23.1% | 40.3% | 101% | 100% | 74.9% | 57.4% | 87% | 30.7% | 29.9% | 95.8% | 52.4% | 99.3% | 80.9% | 51% | 97.4% | 51% | 83.8% | 67.7% | inhibition at 10 µM (U251): 77.7%; inhibition at 10 µM (HCT-15): 70.1%; inhibition at 10 µM (MDA-MB-468): 139%; inhibition at 10 µM (SF-539): 58.3%; inhibition at 10 µM (UACC-62): 56.4%; inhibition at 10 µM (SF-268): 51.5%; inhibition at 10 µM (HCT-116): 85.4%; inhibition at 10 µM (HOP-62): 55.2%; inhibition at 10 µM (OVCAR-5): 46.8%; inhibition at 10 µM (PC-3): 78.6%; inhibition at 10 µM (OVCAR-8): 78.4%

Reference: article PMC10819888, “Benzimidazole-Based Derivatives as Apoptotic Antiproliferative Agents: Design, Synthesis, Docking, and Mechanistic Studies” (Molecules, 2024)
